Series [1] in a line: Intramuscular pharmacokinetic study of chiral isomers 1 and 2. The series is classed as in vivo, male Sprague Dawley (SD) rats. Particulars: IM 20 mg/kg. How it is done: In vivo pharmacokinetic study was performed in male Sprague Dawley (SD) rats (n=4). Intramuscular (IM) formulation of compound 1 Chiral 1 and 2 were prepared by individually dissolving accurately weighed quantity of compound 1, chiral isomers 1 and 2 (20 mg) in 1 mL of olive oil followed by vortexing for 2 min and sterilize through syringe filter. Blood samples were collected from the retro orbital plexus of rats under light ether anesthesia into microfuge tubes containing heparin as an anti-coagulant at 0.25, 0.5, 1, 3, 5, 7, 9, 24, 30, 48 and 72 hours post-dosing after intramuscular dose. Plasma sample was harvested by centrifuging the blood at 13000 rpm for 10 min on Sigma 1-15 K (Frankfurt, Germany) and stored frozen at −70±10° C. until bioanalysis. Each plasma sample (100 μl) was processed using protein precipitation method using 200 μl acetonitrile containing medicarpine as internal standard (I.S.) as protein precipitant, and 10 μl of the supernatant was injected for LC-MS/MS.

Series [2] is described as follows: Intramuscular pharmacokinetic study of bulk compound 1 and chiral isomers. The series is classed as in vivo, male Sprague Dawley (SD) rats. Particulars: IM 20 mg/kg. How it is done:
In vivo pharmacokinetic study was performed in male Sprague Dawley (SD) rats (n=4). Intramuscular (IM) formulation of bulk of compound 1 as well as chiral isomer-1 and chiral isomer-2 was prepared by dissolving accurately weighed quantity of compound 1 (20 mg) in 1 mL of olive oil followed by vortexing for 2 min and sterilize through syringe filter. Blood samples were collected from the retro orbital plexus of rats under light ether anesthesia into microfuge tubes containing heparin as an anti-coagulant at 0.25, 0.5, 1, 3, 5, 7, 9, 24, 30, 48 and 72 hours post-dosing after intramuscular dose. Plasma sample was harvested by centrifuging the blood at 13000 rpm for 10 min on Sigma 1-15 K (Frankfurt, Germany) and stored frozen at −70±10° C. until bioanalysis. Each plasma sample (100 μl) was processed using protein precipitation method using 200 μl acetonitrile containing medicarpine as internal standard (I.S.) as protein precipitant, and 10 μl of the supernatant was injected for LC-MS/MS.

The subject of series [3] is Endothelin-1 receptor. Nature of the series: Endothelin-1 induced contraction of isolated artery rings. Particulars: all concentrations of ET-1. On the set-up: species or system mice. An excerpt:
FIG. 15 represents effect of Compound 1 on endothelin-1 concentration-response curves. (A) Concentration-response curve of endothelin-1 in isolated carotid arteries of vehicle-treated (Control) and Compound 1 treated mice. (B) Concentration-response curve of endothelin-1 in isolated carotid arteries of vehicle-treated (Control) and compound 3 along with compound 8 treated mice.
To test for the selectivity of the putative Endothelin-1 receptor, we applied endothelin-1 or Compound 1 in a concentration dependent manner to the […] to observe its contraction inhibition activity (FIG. 15).

Series [4] has as its system HUVECs. Nature of the series: Capillary-like tube formation assay (tubulogenesis). The series is classed as cell-based, human. Particulars: for tubule formation: 6 h. How it is done:
FIG. 2 represents effect of Compound 1 on capillary tube formation of HUVECs. Endothelial cells in Matrigel were incubated with ECM basal medium in the presence of compound 1 at the indicated concentrations for 6 h. Cell viability was assessed by Calcein-AM dye added few min. before the completion of 6 h. then photographs at 10×magnification were taken using an inverted microscope. The tubule length of HUVECs was quantified by Leica QWin software. Tubule network formation is expressed as a percentage of that vehicle (0.1% DMSO) treated cells (control).
FIG. 9 represents effect of racemic mixture (chiral isomer 1-1 and chiral isomer 2-1) of Compound 1 on capillary tube formation of HUVECs. Endothelial cells seeded in matrigel were incubated at the indicated concentrations of compound 1 racemic mixtures (1-1 and 2-1) with ECM basal medium for 6 h. Calcein-AM treatment was added to the ECs few minutes before completion of 6 h and pictures were captured using an inverted microscope at 10×magnification. The tubular structures of HUVECs were measured using Leica QWin software and tubulogenesis was expressed as a % of that vehicle (0.1% DMSO) treated cells (control) well.
HUVEC cells were incubated with or without sunitinib (20 nM) for 6 h at indicated concentrations of chiral isomers of Compound 1 (1-1 and 2-1). Photographs were taken using an inverted microscope at 10×magnification after Calcein-AM treatment to the ECs few minutes before completion of 6 h. The tubule length of HUVECs was quantified by Leica QWin software represented as a % of that vehicle (0.1% DMSO) treated cells (control) well.
To examine the effect of Compound 1 on angiogenesis, capillary tube formation assay was performed on regular or reduced growth factor Matrigel, taking VEGF (50 ng/mL) treated cells as a positive control and sunitinib (50 nM) as a negative control (FIG. 2). HUVECs seeded onto the matrigel with compound 1 at different concentrations of (10 μM, 5 μM, 1 μM, 800 nM, 500 nM, 250 nM, 125 nM, 75 nM, 50 nM, 25 nM and 10 nM) were incubated for six hours.
HUVECs (Human Umbilical Vein Endothelial Cells) were seeded onto the pre-coated matrigel (CORNING; 354230) in 96 wells plate at the rate of 11000 cells/well in incomplete ECM basal medium. Control group received vehicle, VEGF at 50 ng/mL as a positive and sunitinib at 50 nM as a negative control were used. Compound 1 at different dose concentrations (10 μM, 5 μM, 1 μM, 800 nM, 500 nM, 250 nM, 100 nM, 75 nM, 50 nM and 25 nM) were employed on seeded HUVECs in incomplete medium. Post 6 h of incubation Calcein-AM (Invitrogen) was added to all the respective groups and then the tubule pattern was observed and photographs were taken using an inverted fluorescent microscope (DM 6000, Leica Microsystems, USA). Relative tubule lengths were measured using Leica Q-Win software version 3.5.1. (Leica Microsystems, Switzerland).

Setting [5] is: male, Sprague-Dawley, rat, plasma, mean ± S.D., n = 4.
Setting [6] is: male, Sprague-Dawley, rat, plasma, mean ± S.D., n = 4, read-out: AUC0-72.
The mark [7] stands for this setting: male, Sprague-Dawley, rat, plasma, mean ± S.D., n = 4, read-out: Cmax.

Molecules are shown by their SMILES. Like-named read-outs stand apart in the source and are kept apart here.

For orientation: AUC(0-inf) means the area under the concentration-time curve extrapolated to infinity. Low readings indicate low exposure, high ones high exposure. Usually half-life stands for the time needed for the level to fall by half in the phase considered. Read a high half-life as slow decline. The term Cmax denotes the peak of the concentration-time curve. As a reminder, the Tmax is the time at which the peak concentration occurs. In general, IC50 refers to the concentration that gives 50% inhibition.

Consider `CCOC(=O)[C@H]1N=C1CCc1ccc(OC)cc1` (single isomer, unassigned) [Chiral isomer (1-1)], for which the Cl in series [1] (mean ± S.D., n = 4) amounted to 0.16 ± 0.03 L/h/kg; in series [2] (mean ± S.D., n = 4), 0.182 ± 0.0249 L/h/kg. Besides, the Vd in series [1] (mean ± S.D., n = 4) was determined as 3.2 ± 0.84 L/kg; in series [2] (mean ± S.D., n = 4), 4.273 ± 1.167 L/kg. In addition, the AUC(0-inf) was 121 ± 24.1 µg·h/mL in series [1] (setting [5]) and 111 ± 15 µg·h/mL in series [2] (setting [5]). Besides, the half-life is 13.3 ± 1.51 h in series [1] (setting [5]) and 16 ± 2.38 h in series [2] (setting [5]). The AUC(0-t) in series [1] (setting [6]) is 118 ± 24.8 µg·h/mL; in series [2] (setting [6]), 108 ± 15.9 µg·h/mL. In addition, the peak concentration (Cmax) in series [1] (setting [7]) came to 4.81 ± 1.56 µg/mL; in series [2] (setting [7]), 3.91 ± 0.847 µg/mL. In addition, the Tmax in series [1] (male, Sprague-Dawley, rat, plasma, read-out: Tmax) came to 9 h; in series [2] (male, Sprague-Dawley, rat, plasma, mean ± S.D., n = 4, read-out: Tmax), 6.33 ± 4.62 h. In series [2] (male, Sprague-Dawley, rat, plasma, intramuscular, 0.25 h), the concentration at 0.25 h amounted to 1.68 ± 1.06 µg/mL. The molecule also showed a concentration at 0.5 h in series [2] (male, Sprague-Dawley, rat, plasma, intramuscular, 0.5 h) of 2.09 ± 1.65 µg/mL. Besides, the concentration at 1 h in series [2] (male, Sprague-Dawley, rat, plasma, intramuscular, 1 h) amounted to 2.58 ± 1.96 µg/mL. In addition, the concentration at 3 h in series [2] (male, Sprague-Dawley, rat, plasma, intramuscular, 3 h) is 2.56 ± 0.59 µg/mL. The molecule further returned a concentration at 5 h in series [2] (male, Sprague-Dawley, rat, plasma, intramuscular, 5 h) of 2.46 ± 0.88 µg/mL. Moreover, the concentration at 7 h in series [2] (male, Sprague-Dawley, rat, plasma, intramuscular, 7 h) stood at 2.12 ± 0.94 µg/mL. In series [2] (male, Sprague-Dawley, rat, plasma, intramuscular, 9 h), this molecule showed a concentration at 9 h of 3.44 ± 0.26 µg/mL. The molecule further had a concentration at 24 h in series [2] (male, Sprague-Dawley, rat, plasma, intramuscular, 24 h) of 2.47 ± 0.57 µg/mL. The concentration at 30 h in series [2] (male, Sprague-Dawley, rat, plasma, intramuscular, 30 h) came out at 1.73 ± 0.15 µg/mL. The concentration at 48 h in series [2] (male, Sprague-Dawley, rat, plasma, intramuscular, 48 h) is 0.593 ± 0.22 µg/mL. Moreover, in series [2] (male, Sprague-Dawley, rat, plasma, intramuscular, 72 h), the concentration at 72 h worked out at 0.109 ± 0.04 µg/mL. Moreover, the MRT in series [2] (male, Sprague-Dawley, rat, plasma, mean ± S.D., n = 4, read-out: MRT) amounted to 21 ± 0.463 h.

Regarding `CCCCCCCCCCCCC1=NC1C(=O)OCC` (stereo not drawn) [Compound 3, Ethyl 3-dodecyl-2H-azirine-2-carboxylate], the “effect on ET-1 induced contraction of aortic rings” value in series [3] is given as “no effect”. The IC50 value entry in series [4] (endothelial tubule network assay, result in words) was “Not Active”.

As for `CCOC(=O)C1N=C1CCc1ccc(Cl)cc1` (stereo not drawn) [Compound 8, Ethyl 3-(4-chlorophenethyl)-2H-azirine-2-carboxylate], the “effect on ET-1 induced contraction of aortic rings” value in series [3] is reported as “no effect”. The IC50 in series [4] (Homo sapiens, HUVEC, endothelial tubule network assay, anti-angiogenic activity, read-out: IC50 value) was 0.5 µM.

For the molecule `CCOC(=O)[C@H]1N=C1CCc1ccc(OC)cc1` [chiral isomer (2-1)], the time to peak (Tmax) in series [1] came to 3 h; in series [2] (mean ± S.D., n = 4), 3 ± 2 h. In addition, the Plasma concentration stood at 6.64 ± 2.17 µg/mL in series [1] (0.25 h); 7.44 ± 0.40 µg/mL in series [1] (0.5 h); 9.27 ± 1.96 µg/mL in series [1] (1 h); 10.82 ± 1.13 µg/mL in series [1] (3 h); 7.5 ± 0.56 µg/mL in series [1] (5 h); 4.3 ± 0.62 µg/mL in series [1] (7 h). Moreover, the Plasma concentration in series [1] (9 h) was 2.0 ± 0.66 µg/mL; in series [1] (24 h), 0.18 ± 0.013 µg/mL; in series [1] (30 h), 0.13 ± 0.015 µg/mL; in series [1] (48 h) it was 0.076 ± 0.004 µg/mL; in series [1] (72 h) it was 0.044 ± 0.006 µg/mL; in series [2] (0.25 h), 0.409 ± 0.15 µg/mL. Further, the Plasma concentration in series [2] (0.5 h) worked out at 0.7676 ± 0.05 µg/mL; in series [2] (1 h) it was 0.557 ± 0.26 µg/mL; in series [2] (3 h), 0.745 ± 0.12 µg/mL; in series [2] (5 h), 0.762 ± 0.34 µg/mL; in series [2] (7 h), 0.536 ± 0.17 µg/mL; in series [2] (9 h) it was 0.463 ± 0.37 µg/mL. The Plasma concentration was found to be 0.323 ± 0.04 µg/mL in series [2] (24 h), 0.246 ± 0.12 µg/mL in series [2] (30 h), 0.1693 ± 0.10 µg/mL in series [2] (48 h) and 0.0443 ± 0.006 µg/mL in series [2] (72 h). Further, the AUC0-72 is 84.90 ± 6.02 µg·h/mL in series [1] (mean ± S.D., n = 4) and 19.54 ± 3.260 µg·h/mL in series [2] (mean ± S.D., n = 4). For the same molecule, the “AUC0-∞” value in series [1] (mean ± S.D., n = 4) is 85.48 ± 6.1 µg·h/mL; in series [2] (mean ± S.D., n = 4) it was 20.644 ± 2.977 µg·h/mL. Besides, the Cl in series [1] (mean ± S.D., n = 4) came out at 0.23 ± 0.01 L/h/kg; in series [2] (mean ± S.D., n = 4), 0.981 ± 0.130 L/h/kg. Moreover, the Cmax in series [1] (mean ± S.D., n = 4) was 10.82 ± 1.13 µg/mL; in series [2] (mean ± S.D., n = 4), 0.945 ± 0.143 µg/mL. Moreover, the Vd in series [1] (mean ± S.D., n = 4) turned out to be 3.9 ± 0.24 L/kg; in series [2] (mean ± S.D., n = 4) it was 24.497 ± 6.339 L/kg. For the same molecule, the t1/2 in series [1] (mean ± S.D., n = 4) is 9.14 ± 0.12 h; in series [2] (mean ± S.D., n = 4) it was 17.11 ± 2.454 h. In addition, the tubule formation result in series [4] (100 nM combined with sunitinib at 20 nM) is “around 30%”; in series [4] (250 nM), 100%; in series [4] (500 nM) it was 50%; in series [4] (500 nM, listed as isomer (2-1)) it was 50%; in series [4] (1 μM), 50%. The molecule also gave an MRT in series [2] (mean ± S.D., n = 4, in h (unit assumed)) of 22.671 ± 4.539.

The record behind these values is patent US20230234920A1, “Azirine Containing Compounds as Anti-Angiogenesis Agents and a Process for the Preparation Thereof” (COUNCIL OF SCIENTIFIC & INDUSTRIAL RESEARCH, priority 2020, published 2023).
